The conditions of data set [1]: in vivo.
For data set [2] the following is noted: plasma; ref https://doi.org/10.1002/cpdd.132; cited from earlier work.
Data set [3] concerns the target T1, human OAT1 (Homo sapiens, UniProt Q4U2R8).
T1 sequence (Q4U2R8 1-563): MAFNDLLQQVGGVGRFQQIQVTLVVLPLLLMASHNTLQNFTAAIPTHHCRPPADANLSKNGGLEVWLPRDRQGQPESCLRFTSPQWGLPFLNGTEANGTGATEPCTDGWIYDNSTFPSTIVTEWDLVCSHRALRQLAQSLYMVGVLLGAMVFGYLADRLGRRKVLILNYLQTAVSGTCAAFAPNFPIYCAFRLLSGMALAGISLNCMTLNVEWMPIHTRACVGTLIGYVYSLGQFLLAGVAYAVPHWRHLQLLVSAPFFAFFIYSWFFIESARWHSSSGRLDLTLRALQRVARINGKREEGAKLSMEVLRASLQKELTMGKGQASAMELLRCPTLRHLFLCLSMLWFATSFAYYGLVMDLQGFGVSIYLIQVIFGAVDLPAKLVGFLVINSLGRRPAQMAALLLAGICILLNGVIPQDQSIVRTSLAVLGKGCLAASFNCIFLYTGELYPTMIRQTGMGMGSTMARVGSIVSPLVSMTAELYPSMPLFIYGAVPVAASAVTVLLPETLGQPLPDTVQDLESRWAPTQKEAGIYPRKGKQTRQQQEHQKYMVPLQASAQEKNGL
Put plainly: Inhibition of OAT1-mediated 6-carboxyfluorescein. Conditions: read-out: Ki (OAT1).

The target in data set [4] is T2, human OAT3 (Homo sapiens, UniProt Q8TCC7).
T2 sequence (Q8TCC7 1-542): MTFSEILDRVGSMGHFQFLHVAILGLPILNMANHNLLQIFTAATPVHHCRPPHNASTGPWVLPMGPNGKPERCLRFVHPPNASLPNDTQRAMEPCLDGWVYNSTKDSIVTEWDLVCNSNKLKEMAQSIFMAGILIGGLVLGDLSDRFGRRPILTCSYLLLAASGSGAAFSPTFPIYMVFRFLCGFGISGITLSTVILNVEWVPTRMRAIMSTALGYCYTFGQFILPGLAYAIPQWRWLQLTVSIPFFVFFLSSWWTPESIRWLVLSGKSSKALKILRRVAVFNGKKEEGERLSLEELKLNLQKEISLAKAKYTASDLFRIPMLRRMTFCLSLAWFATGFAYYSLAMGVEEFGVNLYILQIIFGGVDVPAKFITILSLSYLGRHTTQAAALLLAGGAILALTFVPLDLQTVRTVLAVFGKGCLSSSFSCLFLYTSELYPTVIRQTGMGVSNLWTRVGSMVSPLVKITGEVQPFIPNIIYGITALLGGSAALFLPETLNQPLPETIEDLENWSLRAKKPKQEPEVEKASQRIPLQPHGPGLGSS
Put plainly: Inhibition of OAT3-mediated 6-carboxyfluorescein. Conditions: read-out: Ki (OAT3).

Molecules are shown by their SMILES. Counter-ions that a name gives are not always drawn. Like-named read-outs stand apart in the source and are kept apart here.

Take `C[C@]12CC[C@H](OS(=O)(=O)O)CC1=CC[C@@H]1[C@@H]2CC[C@]2(C)C(c3cccnc3)=CC[C@@H]12` [Abiraterone sulfate]: in data set [1], the “Cmax,u” value turned out to be 0.25 µM. Further, the Cmax in data set [2] is 25 µM. The inhibitory constant (Ki) in data set [3] is 38.2 µM; in data set [4] it was 1.83 µM.
Consider `C[C@]12CC[C@H](OS(=O)(=O)O)CC1=CC[C@@H]1[C@@H]2CC[C@]2(C)C(c3ccc[n+]([O-])c3)=CC[C@@H]12` [Abiraterone N-oxide sulfate], for which the “Cmax,u” value in data set [1] amounted to 0.092 µM. For the same molecule, the Cmax in data set [2] was 9.2 µM. For the same molecule, the inhibition constant Ki in data set [3] (HEK293 cells stably transfected with OAT1, 2 μM 6CF, 3 min, 37 °C, […]) is > 100 µM; in data set [4], 1.36 µM.

These data come from paper PMC8177813 (Journal of pharmaceutical sciences, 2020).
